This is an account of results in ChEMBL document CHEMBL5465560, “Selectivity Literature for EUbOPEN Chemogenomic Library” (2024).

The target in experiment [1] is T1, Cytoplasmic tyrosine-protein kinase BMX (Homo sapiens) (UniProt P51813).
T1 sequence (whole entry): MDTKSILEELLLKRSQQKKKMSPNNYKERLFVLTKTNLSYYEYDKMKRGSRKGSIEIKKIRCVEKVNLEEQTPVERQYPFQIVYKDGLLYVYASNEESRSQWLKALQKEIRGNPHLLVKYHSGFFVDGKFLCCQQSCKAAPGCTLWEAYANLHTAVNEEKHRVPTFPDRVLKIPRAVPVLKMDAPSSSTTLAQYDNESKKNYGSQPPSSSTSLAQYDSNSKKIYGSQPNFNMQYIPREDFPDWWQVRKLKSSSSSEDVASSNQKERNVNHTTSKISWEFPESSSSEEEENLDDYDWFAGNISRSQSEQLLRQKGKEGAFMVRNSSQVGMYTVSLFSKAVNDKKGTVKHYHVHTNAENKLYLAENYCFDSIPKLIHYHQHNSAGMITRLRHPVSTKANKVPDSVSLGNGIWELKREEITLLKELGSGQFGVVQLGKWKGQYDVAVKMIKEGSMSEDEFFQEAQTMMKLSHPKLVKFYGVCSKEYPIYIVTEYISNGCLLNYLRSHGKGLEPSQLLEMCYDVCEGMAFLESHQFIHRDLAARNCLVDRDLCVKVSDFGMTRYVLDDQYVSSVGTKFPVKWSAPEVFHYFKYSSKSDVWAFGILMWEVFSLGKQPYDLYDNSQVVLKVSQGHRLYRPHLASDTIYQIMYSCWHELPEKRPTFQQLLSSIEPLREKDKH
Nature of the experiment: Selectivity interaction (Kinase panel (Z-LYTE Assay)) EUB0001632a BMX. The conditions noted are these: at 10 µM.

Experiment [2] addresses T2, 5-hydroxytryptamine receptor 3A (Homo sapiens) (UniProt P46098).
T2 sequence (whole entry): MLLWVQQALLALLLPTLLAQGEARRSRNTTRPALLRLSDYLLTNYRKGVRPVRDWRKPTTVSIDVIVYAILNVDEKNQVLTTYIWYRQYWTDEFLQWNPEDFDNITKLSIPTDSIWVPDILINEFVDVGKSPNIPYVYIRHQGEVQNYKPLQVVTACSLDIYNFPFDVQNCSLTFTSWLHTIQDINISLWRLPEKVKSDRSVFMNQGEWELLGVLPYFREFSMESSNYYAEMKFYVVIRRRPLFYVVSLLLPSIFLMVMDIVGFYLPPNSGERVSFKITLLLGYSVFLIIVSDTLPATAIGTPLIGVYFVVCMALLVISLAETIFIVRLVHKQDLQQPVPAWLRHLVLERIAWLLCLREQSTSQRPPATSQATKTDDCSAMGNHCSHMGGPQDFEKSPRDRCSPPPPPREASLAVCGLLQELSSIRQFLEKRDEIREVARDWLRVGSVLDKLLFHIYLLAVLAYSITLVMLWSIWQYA
The experiment in a line: Selectivity interaction (Panel of non-epigenetic targets (kinases, GPCRs, ion channels, and transporters, Eurofins) ) EUB0000271b HTR3A. The conditions noted are these: at 1 µM.

Experiment [3] concerns the target T3, Histone-arginine methyltransferase CARM1 (Homo sapiens) (UniProt Q86X55).
T3 sequence (whole entry): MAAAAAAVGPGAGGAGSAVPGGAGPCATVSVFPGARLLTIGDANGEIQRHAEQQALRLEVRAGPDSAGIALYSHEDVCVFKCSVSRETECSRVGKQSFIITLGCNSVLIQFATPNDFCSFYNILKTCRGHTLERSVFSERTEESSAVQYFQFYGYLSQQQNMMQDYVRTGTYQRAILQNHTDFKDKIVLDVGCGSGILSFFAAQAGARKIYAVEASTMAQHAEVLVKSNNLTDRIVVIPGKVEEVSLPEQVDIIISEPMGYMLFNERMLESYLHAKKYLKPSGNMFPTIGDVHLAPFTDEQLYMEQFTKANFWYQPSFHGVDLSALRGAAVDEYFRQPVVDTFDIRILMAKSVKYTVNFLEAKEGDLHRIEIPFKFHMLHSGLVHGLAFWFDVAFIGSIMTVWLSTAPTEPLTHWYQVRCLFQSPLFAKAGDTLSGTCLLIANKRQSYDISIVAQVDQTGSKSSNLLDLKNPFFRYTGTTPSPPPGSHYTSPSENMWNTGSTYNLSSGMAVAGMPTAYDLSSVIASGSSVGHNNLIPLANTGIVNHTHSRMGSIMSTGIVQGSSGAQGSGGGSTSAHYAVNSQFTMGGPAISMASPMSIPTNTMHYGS
The conditions noted are these: KMS-26, at 3 µM.

The target in experiment [4] is Calcium/calmodulin-dependent protein kinase type 1 (Homo sapiens) (UniProt Q14012). Nature of the experiment: Selectivity interaction (KinomeScan (DiscoverX)) EUB0000655a CAMK1. The conditions noted are these: at 10 µM.
The target in experiment [5] is T4, Interleukin-1 receptor-associated kinase 4 (Homo sapiens) (UniProt Q9NWZ3).
T4 sequence (whole entry): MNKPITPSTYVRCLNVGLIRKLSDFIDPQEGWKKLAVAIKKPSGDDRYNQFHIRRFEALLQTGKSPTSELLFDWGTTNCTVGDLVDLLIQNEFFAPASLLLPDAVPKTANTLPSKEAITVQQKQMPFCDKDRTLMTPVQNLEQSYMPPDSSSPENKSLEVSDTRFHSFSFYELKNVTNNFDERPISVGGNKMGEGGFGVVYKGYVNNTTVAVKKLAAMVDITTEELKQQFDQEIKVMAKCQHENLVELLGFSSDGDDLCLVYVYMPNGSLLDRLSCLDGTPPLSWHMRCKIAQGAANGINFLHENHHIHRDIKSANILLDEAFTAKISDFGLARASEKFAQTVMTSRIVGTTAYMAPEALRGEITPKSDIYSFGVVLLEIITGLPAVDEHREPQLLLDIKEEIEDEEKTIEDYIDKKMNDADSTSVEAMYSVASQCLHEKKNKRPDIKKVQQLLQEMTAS
The experiment in a line: Selectivity interaction (Kinase panel (literature)) EUB0001199aCl IRAK4. The following applies: at 1 µM.

Experiment [6] deals with Protein kinase C delta type (Homo sapiens) (UniProt Q05655). The experiment in a line: Selectivity interaction (KinomeScan (DiscoverX)) EUB0001049a PRKCD. The following applies: at 1 µM.
Experiment [7] has as its target Proto-oncogene tyrosine-protein kinase Src (Homo sapiens, UniProt P12931). Nature of the experiment: Selectivity interaction (Kinase panel (DSF assay)) EUB0001559a SRC.

Molecules are shown by their SMILES.

Chain of Protein kinase C delta type (Homo sapiens) (Q05655 whole entry, looked up): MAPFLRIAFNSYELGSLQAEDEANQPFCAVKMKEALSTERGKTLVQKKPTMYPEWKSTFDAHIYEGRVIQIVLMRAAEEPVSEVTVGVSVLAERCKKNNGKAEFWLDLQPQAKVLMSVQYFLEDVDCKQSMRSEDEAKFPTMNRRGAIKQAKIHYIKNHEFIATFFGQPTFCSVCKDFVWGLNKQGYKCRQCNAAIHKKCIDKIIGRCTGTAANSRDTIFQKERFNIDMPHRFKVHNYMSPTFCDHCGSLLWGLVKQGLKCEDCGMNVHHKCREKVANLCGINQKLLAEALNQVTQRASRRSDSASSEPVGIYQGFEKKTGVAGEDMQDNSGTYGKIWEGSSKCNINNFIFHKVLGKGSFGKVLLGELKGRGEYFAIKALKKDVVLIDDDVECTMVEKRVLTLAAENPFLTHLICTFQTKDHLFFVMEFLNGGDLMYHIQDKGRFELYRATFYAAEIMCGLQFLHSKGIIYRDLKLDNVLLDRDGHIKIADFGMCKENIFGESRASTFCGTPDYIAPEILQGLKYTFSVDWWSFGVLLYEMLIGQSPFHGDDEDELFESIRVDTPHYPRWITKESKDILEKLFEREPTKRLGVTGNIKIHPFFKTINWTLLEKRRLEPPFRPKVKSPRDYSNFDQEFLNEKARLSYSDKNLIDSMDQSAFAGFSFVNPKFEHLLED
Chain of Calcium/calmodulin-dependent protein kinase type 1 (Homo sapiens) (Q14012 whole entry, looked up): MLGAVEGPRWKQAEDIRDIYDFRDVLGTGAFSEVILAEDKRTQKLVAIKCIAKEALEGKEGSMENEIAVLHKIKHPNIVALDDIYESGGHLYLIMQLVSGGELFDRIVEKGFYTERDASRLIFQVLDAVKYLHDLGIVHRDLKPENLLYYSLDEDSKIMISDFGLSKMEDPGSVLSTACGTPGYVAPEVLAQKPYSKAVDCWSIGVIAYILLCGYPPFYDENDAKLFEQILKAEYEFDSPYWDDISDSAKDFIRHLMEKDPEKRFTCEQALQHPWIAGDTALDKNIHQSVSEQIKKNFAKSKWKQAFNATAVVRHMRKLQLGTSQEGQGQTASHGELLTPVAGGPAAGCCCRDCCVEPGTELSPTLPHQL
Chain of Proto-oncogene tyrosine-protein kinase Src (P12931 2-536 limits assumed): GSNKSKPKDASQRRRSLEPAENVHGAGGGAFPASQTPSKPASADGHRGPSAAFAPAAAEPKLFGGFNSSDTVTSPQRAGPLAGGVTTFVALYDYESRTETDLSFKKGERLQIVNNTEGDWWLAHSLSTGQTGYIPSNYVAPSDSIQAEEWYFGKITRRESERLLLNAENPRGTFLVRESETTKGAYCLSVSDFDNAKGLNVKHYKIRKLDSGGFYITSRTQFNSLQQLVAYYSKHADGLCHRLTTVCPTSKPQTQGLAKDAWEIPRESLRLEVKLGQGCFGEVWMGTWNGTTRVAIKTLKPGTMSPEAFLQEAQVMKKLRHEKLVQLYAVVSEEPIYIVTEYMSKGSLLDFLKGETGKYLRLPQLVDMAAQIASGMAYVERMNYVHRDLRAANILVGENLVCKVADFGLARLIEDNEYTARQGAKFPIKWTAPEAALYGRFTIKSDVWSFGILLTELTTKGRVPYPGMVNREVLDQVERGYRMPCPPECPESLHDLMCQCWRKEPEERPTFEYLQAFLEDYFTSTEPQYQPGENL

Turning to `Cn1cc(-n2cnc3c(NCc4nc5cc(Cl)c(Cl)cc5[nH]4)nc(N4CCOCC4)nc32)cn1`, in experiment [1], the % of control amounted to 2.67%.

With `Cc1cc(C)cc([C@@H]2c3cc(C)ccc3NC(=O)CN2C(=O)c2ccc(Br)s2)c1`, the % of inhibition in experiment [2] was -5%.

As to `CNCCN1CCC(c2cc(CN(C)C(=O)c3cccc(Oc4ccccc4)c3)ccn2)CC1`, the % of growth rate in experiment [3] is -19.5%. For the molecule `CN(C)CCOc1ccc(-c2nc(-c3ccncc3)c(-c3ccc4c(c3)CC/C4=N\O)[nH]2)cc1`, in experiment [4], the % of control came to 93%.

`CN1Cc2nccc(-c3cn(C)nc3-c3ccc(F)cc3)c2C1=O`: in experiment [5], the % of inhibition is -8%. In experiment [6], `COc1cc(Nc2nc(C)cc(-c3cnn4nc(OC)ccc34)n2)cc(C(F)(F)F)c1` yielded a % of control of 97%. In experiment [7], `CN(C(=O)c1cnn2cccnc12)c1cc2c(cc1N1CCOCC1)C(=O)N(C[C@@H](F)C(C)(C)O)C2` had a dTM of -0.3 K.
